Test results: ChEMBL document CHEMBL4834491, “Novel Compounds for Treating Malaria” (ACS Med Chem Lett, 2021)

Tested on: Plasmodium falciparum
Experiment: Antimalarial activity against Plasmodium falciparum assessed as reduction in parasite growth after 72 hrs by LDH assay
Assay type: functional, organism-based

Q: With `CCC1(CC)CC(=O)N([C@H](c2cccnc2)[C@@H]2C(C)[C@H]2C(=O)N[C@H]2CC(C)(C)Oc3ccccc32)C(=N)N1` (stereo partly specified) as the compound, how does the EC50 read?
A: Its EC50 is 0.7 nM.

Q: With `CC[C@]1(C)CC(=O)N([C@H](c2cncc(F)c2)[C@@H]2C[C@H]2C(=O)N[C@H]2C[C@H](C(F)(F)F)Oc3ccccc32)C(=N)N1` as the compound, how does the EC50 read?
A: Its EC50 is 0.3 nM.

Q: For `CC[C@@]1(C)CC(=O)N([C@H](c2cncc(F)c2)[C@@H]2C[C@H]2C(=O)N[C@H]2CC(C)(C)Oc3ccccc32)C(=N)N1`, which EC50 is on record?
A: The EC50 was 0.6 nM.

Q: With `CC[C@]1(C)CC(=O)N([C@H](c2cncc(F)c2)[C@@H]2C[C@H]2C(=O)N[C@H]2CC(C)(C)Oc3ccc(F)cc32)C(=N)N1` as the compound, how does the EC50 read?
A: Its EC50 is 0.3 nM.

Q: `CCC1(CC)CC(=O)N([C@H](CCCC(C)OC)[C@@H]2C[C@H]2C(=O)N[C@H]2CC(C)(C)Oc3ccccc32)C(=N)N1` (stereo partly specified) was tested. Which EC50 did it give?
A: The EC50 was 0.7 nM.

Q: How did the EC50 turn out when `CC1(C)CC(=O)N([C@H](c2cncc(Cl)c2)[C@@H]2C[C@H]2C(=O)N[C@H]2C[C@H](C(F)(F)F)Oc3ccccc32)C(=N)N1` was run?
A: Its EC50 is 0.5 nM.
